Results on 16 compounds are retold here after PubChem BioAssay (NCI).

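Values below derive from 48-hour exposures of cells grown in 96-well plates, with endpoints linearly interpolated between the two concentrations bracketing the appropriate inhibition level. TGI: total growth inhibition.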 Where a SMILES comes first, the peptide text is derived from it. The star is where a group is joined. Cbz = O=C(OCc1ccccc1)*; OBn = c1ccc(CO*)cc1 A value given as a limit tells only on which side of the number the result lay.

For one assay, the system named is M14 melanoma. The assay can be described thus: NCI tumour cell line growth inhibition, 48 h.
Take `COc1cc2c(cc1OC)-c1[nH]c3ccc(C#N)cc3c1CC(=O)N2`: the TGI was more than 100 µM.
Compound `Cc1occc1C(=S)Nc1ccc(Cl)c(C(=O)OCC(F)(F)F)c1` registered a TGI of more than 100 µM.
`O=C(O)C1CC2C3CCC2C1C3=O` (configuration not stated): the TGI was more than 100 µM.
With `CC(C)c1ccccc1SC1CC(=O)CC(Sc2ccccc2C(C)C)C12O[C@H](c1ccccc1)[C@@H](c1ccccc1)O2` (some centres not stated), the TGI was determined as 40.8 µM.
In turn, `CSC1=N[C@H](c2ccccc2)CS1` displayed a TGI of more than 100 µM.
On the same count and under the same terms, as for `CCOC(=O)/C(C)=C\[C@@]1(C)O[C@@H](C)[C@@](C)(OC(C)=O)[C@@H]1OC(C)=O`, the figure is more than 100 µM; as for `COc1ccc(/C=C2/C(C)=NN(c3cccc(Cl)c3)/C2=N/c2nc3ccccc3s2)cc1`, 60.8 µM.
In turn, `CSc1nc2ccccc2c(=O)n1/N=C1\C(=O)N(CN2CCCCC2)c2ccc(Cl)cc21` displayed a TGI of more than 100 µM.

For a further assay, the system named is CCRF-CEM leukemia. The assay can be described thus: NCI tumour cell line growth inhibition, 48 h.
In the case of `COC(=O)N1C[C@@]2(C=CC3(CC2)OCCO3)c2ccccc21`, the TGI is more than 100 µM.
`N#CC1(C#N)C2CCCCC23OC(=N)C1(C#N)C(c1ccco1)O3` (configuration not stated) yielded a TGI of more than 100 µM.
Same read-out and setting: the result for `CC1C2CC(CC(=O)N2)C1(C)C` (configuration not stated) reads more than 100 µM; that for `CCOC(=O)/C(O)=C(/C=N\C(=S)Nc1ccccc1Cl)C(=O)OCC`, more than 100 µM.
Take `O=C(NC(C(F)(F)F)(C(F)(F)F)P(=O)(c1ccccc1)c1ccccc1)C(C(F)(F)F)C(F)(F)F`: the TGI is more than 100 µM.
With `COc1cc2c(cc1OC)-c1[nH]c3ccc(C#N)cc3c1CC(=O)N2`, the TGI was more than 100 µM.
In turn, `Cc1occc1C(=S)Nc1ccc(Cl)c(C(=O)OCC(F)(F)F)c1` registered a TGI of 57.7 µM.
`O=C(O)C1CC2C3CCC2C1C3=O` (configuration not stated) returned a TGI of more than 100 µM.
The same measure, in the same setting: the result for `CC(C)c1ccccc1SC1CC(=O)CC(Sc2ccccc2C(C)C)C12O[C@H](c1ccccc1)[C@@H](c1ccccc1)O2` (some centres not stated) reads 52.9 µM.
Regarding `CSC1=N[C@H](c2ccccc2)CS1`, the TGI was more than 100 µM.
Compound `CCOC(=O)/C(C)=C\[C@@]1(C)O[C@@H](C)[C@@](C)(OC(C)=O)[C@@H]1OC(C)=O` yielded a TGI of more than 100 µM.
In turn, `COc1ccc(/C=C2/C(C)=NN(c3cccc(Cl)c3)/C2=N/c2nc3ccccc3s2)cc1` came in with a TGI of 92.7 µM.
Same read-out and setting: the result for `CSc1nc2ccccc2c(=O)n1/N=C1\C(=O)N(CN2CCCCC2)c2ccc(Cl)cc21` reads more than 100 µM.

A further assay has as its system SNB-19 CNS. The assay can be described thus: NCI tumour cell line growth inhibition, 48 h.
`COC(=O)CNC(=O)C(C)NC(=O)C(CC(=O)OCc1ccccc1)NC(=O)OCc1ccccc1` (stereo not drawn) (Cbz-Asp(OBn)-Ala-Gly-OMe; configuration not given here) yielded a TGI of more than 100 µM.
For the compound `COC(=O)N1C[C@@]2(C=CC3(CC2)OCCO3)c2ccccc21`, the TGI was more than 100 µM.
For the compound `N#CC1(C#N)C2CCCCC23OC(=N)C1(C#N)C(c1ccco1)O3` (configuration not stated), the TGI was more than 100 µM.
Same read-out and setting: as for `CC1C2CC(CC(=O)N2)C1(C)C` (configuration not stated), the figure is more than 100 µM; as for `CCOC(=O)/C(O)=C(/C=N\C(=S)Nc1ccccc1Cl)C(=O)OCC`, more than 100 µM.
In turn, `O=C(NC(C(F)(F)F)(C(F)(F)F)P(=O)(c1ccccc1)c1ccccc1)C(C(F)(F)F)C(F)(F)F` displayed a TGI of more than 100 µM.
`COC(=O)[C@H](Cc1ccccc1)NC(=O)NCCN(CCNC(=O)N[C@@H](Cc1ccccc1)C(=O)OC)C(=O)N[C@@H](Cc1ccccc1)C(=O)OC` returned a TGI of 48.2 µM.
In turn, `COc1cc2c(cc1OC)-c1[nH]c3ccc(C#N)cc3c1CC(=O)N2` registered a TGI of more than 100 µM.
The same measure, in the same setting: the result for `Cn1nc(Cc2ccc(Cl)cc2)n(N)c1=O` reads more than 100 µM; that for `Cc1occc1C(=S)Nc1ccc(Cl)c(C(=O)OCC(F)(F)F)c1`, 43.9 µM; that for `O=C(O)C1CC2C3CCC2C1C3=O` (configuration not stated), more than 100 µM.
`CC(C)c1ccccc1SC1CC(=O)CC(Sc2ccccc2C(C)C)C12O[C@H](c1ccccc1)[C@@H](c1ccccc1)O2` (some centres not stated): the TGI was more than 100 µM.
Compound `CSC1=N[C@H](c2ccccc2)CS1` yielded a TGI of more than 100 µM.
With `CCOC(=O)/C(C)=C\[C@@]1(C)O[C@@H](C)[C@@](C)(OC(C)=O)[C@@H]1OC(C)=O`, the TGI is more than 100 µM.
In turn, `CSc1nc2ccccc2c(=O)n1/N=C1\C(=O)N(CN2CCCCC2)c2ccc(Cl)cc21` showed a TGI of more than 100 µM.

A further assay has as its system SK-MEL-28 melanoma. The assay can be described thus: NCI tumour cell line growth inhibition, 48 h.
`COC(=O)CNC(=O)C(C)NC(=O)C(CC(=O)OCc1ccccc1)NC(=O)OCc1ccccc1` (stereo not drawn) (Cbz-Asp(OBn)-Ala-Gly-OMe; configuration not given here): the TGI is more than 100 µM.
Compound `COC(=O)N1C[C@@]2(C=CC3(CC2)OCCO3)c2ccccc21` registered a TGI of more than 100 µM.
The compound `N#CC1(C#N)C2CCCCC23OC(=N)C1(C#N)C(c1ccco1)O3` (configuration not stated) showed a TGI of 45.6 µM.
`CC1C2CC(CC(=O)N2)C1(C)C` (configuration not stated) gave a TGI of more than 100 µM.
In turn, `CCOC(=O)/C(O)=C(/C=N\C(=S)Nc1ccccc1Cl)C(=O)OCC` displayed a TGI of more than 100 µM.
For the compound `O=C(NC(C(F)(F)F)(C(F)(F)F)P(=O)(c1ccccc1)c1ccccc1)C(C(F)(F)F)C(F)(F)F`, the TGI is more than 100 µM.
`COC(=O)[C@H](Cc1ccccc1)NC(=O)NCCN(CCNC(=O)N[C@@H](Cc1ccccc1)C(=O)OC)C(=O)N[C@@H](Cc1ccccc1)C(=O)OC` returned a TGI of 35.4 µM.
`COc1cc2c(cc1OC)-c1[nH]c3ccc(C#N)cc3c1CC(=O)N2` displayed a TGI of more than 100 µM.
As to `Cn1nc(Cc2ccc(Cl)cc2)n(N)c1=O`, the TGI was more than 100 µM.
Take `Cc1occc1C(=S)Nc1ccc(Cl)c(C(=O)OCC(F)(F)F)c1`: the TGI worked out at 42.6 µM.
On to `O=C(O)C1CC2C3CCC2C1C3=O` (configuration not stated), for which the TGI was more than 100 µM.
As to `CC(C)c1ccccc1SC1CC(=O)CC(Sc2ccccc2C(C)C)C12O[C@H](c1ccccc1)[C@@H](c1ccccc1)O2` (some centres not stated), the TGI was more than 100 µM.
Compound `CSC1=N[C@H](c2ccccc2)CS1` had a TGI of more than 100 µM.
The same measure, in the same setting: the result for `CCOC(=O)/C(C)=C\[C@@]1(C)O[C@@H](C)[C@@](C)(OC(C)=O)[C@@H]1OC(C)=O` reads more than 100 µM; that for `COc1ccc(/C=C2/C(C)=NN(c3cccc(Cl)c3)/C2=N/c2nc3ccccc3s2)cc1`, 46.9 µM; that for `CSc1nc2ccccc2c(=O)n1/N=C1\C(=O)N(CN2CCCCC2)c2ccc(Cl)cc21`, more than 100 µM.

The subject of the next assay is UACC-62 melanoma. The assay can be described thus: NCI tumour cell line growth inhibition, 48 h.
Take `COC(=O)CNC(=O)C(C)NC(=O)C(CC(=O)OCc1ccccc1)NC(=O)OCc1ccccc1` (stereo not drawn) (Cbz-Asp(OBn)-Ala-Gly-OMe; configuration not given here): the TGI was more than 100 µM.
In turn, `COC(=O)N1C[C@@]2(C=CC3(CC2)OCCO3)c2ccccc21` had a TGI of more than 100 µM.
Same read-out and setting: the result for `N#CC1(C#N)C2CCCCC23OC(=N)C1(C#N)C(c1ccco1)O3` (configuration not stated) reads 36.4 µM; that for `CC1C2CC(CC(=O)N2)C1(C)C` (configuration not stated), more than 100 µM.
With `CCOC(=O)/C(O)=C(/C=N\C(=S)Nc1ccccc1Cl)C(=O)OCC`, the TGI is more than 100 µM.
In turn, `O=C(NC(C(F)(F)F)(C(F)(F)F)P(=O)(c1ccccc1)c1ccccc1)C(C(F)(F)F)C(F)(F)F` displayed a TGI of more than 100 µM.
On to `COC(=O)[C@H](Cc1ccccc1)NC(=O)NCCN(CCNC(=O)N[C@@H](Cc1ccccc1)C(=O)OC)C(=O)N[C@@H](Cc1ccccc1)C(=O)OC`, for which the TGI was 49.8 µM.
Still for that read-out and setting: as for `COc1cc2c(cc1OC)-c1[nH]c3ccc(C#N)cc3c1CC(=O)N2`, the figure is more than 100 µM; as for `Cn1nc(Cc2ccc(Cl)cc2)n(N)c1=O`, more than 100 µM; as for `Cc1occc1C(=S)Nc1ccc(Cl)c(C(=O)OCC(F)(F)F)c1`, 32 µM.
As for `O=C(O)C1CC2C3CCC2C1C3=O` (configuration not stated), the TGI was more than 100 µM.
Still for that read-out and setting: as for `CC(C)c1ccccc1SC1CC(=O)CC(Sc2ccccc2C(C)C)C12O[C@H](c1ccccc1)[C@@H](c1ccccc1)O2` (some centres not stated), the figure is 96.4 µM.
Consider `CSC1=N[C@H](c2ccccc2)CS1`, for which the TGI is more than 100 µM.
Still for that read-out and setting: the result for `CCOC(=O)/C(C)=C\[C@@]1(C)O[C@@H](C)[C@@](C)(OC(C)=O)[C@@H]1OC(C)=O` reads more than 100 µM; that for `CSc1nc2ccccc2c(=O)n1/N=C1\C(=O)N(CN2CCCCC2)c2ccc(Cl)cc21`, more than 100 µM.
